Assay results published in patent US11103684B2, “Systems, devices, and methods for treating a pulmonary disorder with an agent” (Holaira, Inc., priority 2013, dated 2021).
≈ marks a conversion by molar mass, not a printed value. Where a name gives a salt, the structure may show the parent alone. Read-outs that look alike come from different tables or passages of the source.

Key:
[1] = physchem; conditions: water
[2] = Solubility levels of various agents in water; conditions: for Extent (of solubility): US Pharmacopea scale, part of solvent per part of solute; for Part H20/part solute / Solubility in Water: water; for Solubility in Water: from mg/L and MW
[3] = cited from earlier work

solubility ([1]; Solubility in Water (mol/L)) [mM]	Extent (of solubility) [2]	Part H20/part solute [2]	Solubility in Water [2] [mM]	SMILES	other results
55.7 (≈ 10700 µg/mL)	–	–	–	Cc1cccc(C)c1NC(=O)C(C)N (centres unmarked) [Tocainide]	–
18.6 (≈ 4390 µg/mL)	–	–	–	CCN(CC)CCNC(=O)c1ccc(N)cc1 [Procainamide]	–
–	–	–	–	[N]=O [Nitric Oxide]	solubility [1]: 2.85 mM (≈ 85.4 µg/mL)
–	very slightly soluble (1000 to 10000)	6720	8.333 (≈ 2400 µg/mL)	CCCCN1CCCCC1C(=O)Nc1c(C)cccc1C (centres unmarked) [Bupivicaine]	–
–	–	–	–	CCCN1CCCC[C@H]1C(=O)Nc1c(C)cccc1C [Ropivacaine HCL]	Solubility in Water ([3]; HCL): 53.8 mg/mL; Extent (of solubility) ([2]; HCL): slightly soluble (100 to 1000); Part H20/part solute ([2]; HCL): 342.5; Solubility in Water ([2]; HCL): 163.5 mM
–	insoluble (>10000)	266388.8889	0.2102 (≈ 57.7 µg/mL)	CCCN1CCCC[C@H]1C(=O)Nc1c(C)cccc1C [Ropivacaine]	Solubility in Water [3]: 0.0576 mg/mL (≈ 210 µM)
